Calls of active or inactive are those of the source.
What was measured:
[1] = biological target: T1, Tyrosine-protein kinase Mer (Homo sapiens, UniProt Q12866)
T1 sequence (Q12866 whole entry): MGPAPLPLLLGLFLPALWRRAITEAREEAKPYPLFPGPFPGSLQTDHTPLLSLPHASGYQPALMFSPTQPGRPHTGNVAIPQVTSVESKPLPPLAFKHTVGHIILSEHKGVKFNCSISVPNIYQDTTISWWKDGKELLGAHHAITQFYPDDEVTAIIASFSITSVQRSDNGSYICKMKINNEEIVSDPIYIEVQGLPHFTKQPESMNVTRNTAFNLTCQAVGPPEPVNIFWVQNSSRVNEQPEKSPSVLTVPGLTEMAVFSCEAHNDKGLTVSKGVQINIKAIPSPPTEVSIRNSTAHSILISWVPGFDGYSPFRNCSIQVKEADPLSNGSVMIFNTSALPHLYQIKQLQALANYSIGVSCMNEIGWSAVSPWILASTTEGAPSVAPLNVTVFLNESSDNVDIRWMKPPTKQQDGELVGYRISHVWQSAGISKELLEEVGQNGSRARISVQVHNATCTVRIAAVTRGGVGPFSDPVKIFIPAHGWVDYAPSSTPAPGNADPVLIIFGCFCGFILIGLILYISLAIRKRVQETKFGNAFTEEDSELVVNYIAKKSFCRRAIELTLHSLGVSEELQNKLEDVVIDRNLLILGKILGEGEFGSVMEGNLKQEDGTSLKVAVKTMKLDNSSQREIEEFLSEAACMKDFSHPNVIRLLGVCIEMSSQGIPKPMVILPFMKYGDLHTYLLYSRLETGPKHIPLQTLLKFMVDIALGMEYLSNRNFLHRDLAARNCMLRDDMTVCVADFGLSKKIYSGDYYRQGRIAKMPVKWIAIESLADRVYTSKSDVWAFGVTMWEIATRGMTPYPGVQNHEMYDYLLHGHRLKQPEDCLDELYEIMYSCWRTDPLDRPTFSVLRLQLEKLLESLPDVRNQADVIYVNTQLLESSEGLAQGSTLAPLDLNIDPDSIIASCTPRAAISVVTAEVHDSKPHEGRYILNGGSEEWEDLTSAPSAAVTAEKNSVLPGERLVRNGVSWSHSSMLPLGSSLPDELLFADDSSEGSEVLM

[2] = biological target: Tyrosine-protein kinase Fgr (Homo sapiens, UniProt P09769)
[3] = biological target: Serine/threonine-protein kinase PLK1 (Homo sapiens, UniProt P53350)
[4] = biological target: Misshapen-like kinase 1 (Homo sapiens, UniProt Q8N4C8)
[5] = biological target: Cyclin-dependent kinase 10 (Homo sapiens, UniProt Q15131)
[6] = biological target: T2, Ephrin type-A receptor 1 (Homo sapiens, UniProt P21709)
T2 sequence (P21709 whole entry): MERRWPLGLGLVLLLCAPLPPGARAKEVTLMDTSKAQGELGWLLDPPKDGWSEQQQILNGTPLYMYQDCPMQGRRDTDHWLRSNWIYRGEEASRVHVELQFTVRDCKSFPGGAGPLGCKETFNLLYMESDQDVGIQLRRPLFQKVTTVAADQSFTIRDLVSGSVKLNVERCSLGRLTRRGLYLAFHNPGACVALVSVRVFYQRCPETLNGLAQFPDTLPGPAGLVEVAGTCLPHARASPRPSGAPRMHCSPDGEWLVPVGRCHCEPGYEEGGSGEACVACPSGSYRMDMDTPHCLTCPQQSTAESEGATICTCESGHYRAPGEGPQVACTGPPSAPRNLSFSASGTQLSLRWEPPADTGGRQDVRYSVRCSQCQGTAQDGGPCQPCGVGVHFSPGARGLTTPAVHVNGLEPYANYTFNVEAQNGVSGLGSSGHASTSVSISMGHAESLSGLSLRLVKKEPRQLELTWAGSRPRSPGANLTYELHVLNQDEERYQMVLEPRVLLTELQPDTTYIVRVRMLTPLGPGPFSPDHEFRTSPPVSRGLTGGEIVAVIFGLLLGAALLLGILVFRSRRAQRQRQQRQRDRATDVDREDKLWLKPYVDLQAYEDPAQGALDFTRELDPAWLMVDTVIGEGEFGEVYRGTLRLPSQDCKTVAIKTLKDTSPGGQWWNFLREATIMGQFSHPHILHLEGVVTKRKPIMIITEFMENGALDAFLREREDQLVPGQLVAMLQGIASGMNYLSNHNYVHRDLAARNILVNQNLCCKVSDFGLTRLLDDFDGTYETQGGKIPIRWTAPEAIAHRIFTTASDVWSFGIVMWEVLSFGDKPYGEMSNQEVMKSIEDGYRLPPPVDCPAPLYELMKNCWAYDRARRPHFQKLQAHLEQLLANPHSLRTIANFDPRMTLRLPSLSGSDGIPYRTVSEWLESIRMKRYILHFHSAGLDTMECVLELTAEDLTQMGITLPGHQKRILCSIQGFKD

[7] = biological target: Cyclin-dependent kinase 18 (Homo sapiens, UniProt Q07002)
[8] = biological target: Eukaryotic peptide chain release factor GTP-binding subunit ERF3B (Homo sapiens, UniProt Q8IYD1)
[9] = biological target: Serine/threonine-protein kinase 38 (Homo sapiens, UniProt Q15208)
[10] = biological target: Serine/threonine-protein kinase 38-like (Homo sapiens, UniProt Q9Y2H1)
[11] = biological target: T3, Dual specificity mitogen-activated protein kinase kinase 4 (Homo sapiens, UniProt P45985)
T3 sequence (P45985 whole entry): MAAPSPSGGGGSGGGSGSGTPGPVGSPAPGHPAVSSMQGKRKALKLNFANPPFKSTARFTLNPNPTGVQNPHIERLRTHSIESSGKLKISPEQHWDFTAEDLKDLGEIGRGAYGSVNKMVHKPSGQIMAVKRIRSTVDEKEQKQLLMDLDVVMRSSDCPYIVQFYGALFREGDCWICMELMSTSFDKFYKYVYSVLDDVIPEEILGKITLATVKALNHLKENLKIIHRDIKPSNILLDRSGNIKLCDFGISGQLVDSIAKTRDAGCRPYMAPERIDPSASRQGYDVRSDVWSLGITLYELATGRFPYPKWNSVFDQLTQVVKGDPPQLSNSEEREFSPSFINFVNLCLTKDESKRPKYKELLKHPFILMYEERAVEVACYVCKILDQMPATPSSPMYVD
Note: in the data inactive means no Kd found up to 30 µM.

Chain of Cyclin-dependent kinase 18 (Q07002 whole entry): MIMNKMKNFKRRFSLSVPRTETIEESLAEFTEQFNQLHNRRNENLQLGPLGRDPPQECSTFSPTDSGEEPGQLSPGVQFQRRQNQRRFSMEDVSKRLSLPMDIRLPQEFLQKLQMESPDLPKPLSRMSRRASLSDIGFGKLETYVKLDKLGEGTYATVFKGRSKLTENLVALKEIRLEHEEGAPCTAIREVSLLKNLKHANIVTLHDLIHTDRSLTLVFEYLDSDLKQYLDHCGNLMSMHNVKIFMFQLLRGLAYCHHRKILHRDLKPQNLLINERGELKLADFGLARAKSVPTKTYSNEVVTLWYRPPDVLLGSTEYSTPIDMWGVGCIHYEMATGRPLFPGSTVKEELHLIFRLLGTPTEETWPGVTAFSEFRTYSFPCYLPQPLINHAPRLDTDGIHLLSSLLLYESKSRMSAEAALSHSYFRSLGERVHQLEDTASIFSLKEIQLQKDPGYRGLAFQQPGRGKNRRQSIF
Chain of Serine/threonine-protein kinase PLK1 (P53350 whole entry): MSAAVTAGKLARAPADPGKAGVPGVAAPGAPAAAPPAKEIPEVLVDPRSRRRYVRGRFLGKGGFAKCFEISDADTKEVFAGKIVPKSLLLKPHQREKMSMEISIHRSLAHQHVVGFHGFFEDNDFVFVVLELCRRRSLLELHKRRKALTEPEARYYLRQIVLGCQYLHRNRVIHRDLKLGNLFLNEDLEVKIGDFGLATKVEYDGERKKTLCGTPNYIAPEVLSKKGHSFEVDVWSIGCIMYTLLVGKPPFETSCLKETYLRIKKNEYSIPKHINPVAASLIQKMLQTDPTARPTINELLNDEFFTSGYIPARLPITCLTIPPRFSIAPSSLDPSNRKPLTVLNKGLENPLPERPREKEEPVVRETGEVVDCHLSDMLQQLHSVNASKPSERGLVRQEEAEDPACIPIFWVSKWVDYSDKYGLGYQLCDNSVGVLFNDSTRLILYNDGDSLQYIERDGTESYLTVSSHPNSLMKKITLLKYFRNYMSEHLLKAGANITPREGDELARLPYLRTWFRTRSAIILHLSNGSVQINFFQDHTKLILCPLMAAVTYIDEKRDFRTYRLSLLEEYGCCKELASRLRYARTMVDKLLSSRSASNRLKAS
Chain of Tyrosine-protein kinase Fgr (P09769 whole entry): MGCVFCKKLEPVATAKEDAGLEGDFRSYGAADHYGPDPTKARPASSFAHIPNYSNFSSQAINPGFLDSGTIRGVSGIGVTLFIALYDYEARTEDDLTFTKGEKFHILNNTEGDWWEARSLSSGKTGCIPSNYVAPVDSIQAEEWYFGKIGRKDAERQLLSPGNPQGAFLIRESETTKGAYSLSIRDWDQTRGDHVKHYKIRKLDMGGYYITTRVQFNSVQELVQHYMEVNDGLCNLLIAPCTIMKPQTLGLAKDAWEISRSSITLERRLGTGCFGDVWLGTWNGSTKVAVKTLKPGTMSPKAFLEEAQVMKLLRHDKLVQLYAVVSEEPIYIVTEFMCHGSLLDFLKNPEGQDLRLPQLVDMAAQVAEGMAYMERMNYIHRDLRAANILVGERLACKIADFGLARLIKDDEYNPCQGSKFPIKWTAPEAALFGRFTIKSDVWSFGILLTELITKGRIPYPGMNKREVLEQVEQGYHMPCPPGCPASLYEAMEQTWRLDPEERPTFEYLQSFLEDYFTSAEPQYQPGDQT
Chain of Misshapen-like kinase 1 (Q8N4C8 whole entry): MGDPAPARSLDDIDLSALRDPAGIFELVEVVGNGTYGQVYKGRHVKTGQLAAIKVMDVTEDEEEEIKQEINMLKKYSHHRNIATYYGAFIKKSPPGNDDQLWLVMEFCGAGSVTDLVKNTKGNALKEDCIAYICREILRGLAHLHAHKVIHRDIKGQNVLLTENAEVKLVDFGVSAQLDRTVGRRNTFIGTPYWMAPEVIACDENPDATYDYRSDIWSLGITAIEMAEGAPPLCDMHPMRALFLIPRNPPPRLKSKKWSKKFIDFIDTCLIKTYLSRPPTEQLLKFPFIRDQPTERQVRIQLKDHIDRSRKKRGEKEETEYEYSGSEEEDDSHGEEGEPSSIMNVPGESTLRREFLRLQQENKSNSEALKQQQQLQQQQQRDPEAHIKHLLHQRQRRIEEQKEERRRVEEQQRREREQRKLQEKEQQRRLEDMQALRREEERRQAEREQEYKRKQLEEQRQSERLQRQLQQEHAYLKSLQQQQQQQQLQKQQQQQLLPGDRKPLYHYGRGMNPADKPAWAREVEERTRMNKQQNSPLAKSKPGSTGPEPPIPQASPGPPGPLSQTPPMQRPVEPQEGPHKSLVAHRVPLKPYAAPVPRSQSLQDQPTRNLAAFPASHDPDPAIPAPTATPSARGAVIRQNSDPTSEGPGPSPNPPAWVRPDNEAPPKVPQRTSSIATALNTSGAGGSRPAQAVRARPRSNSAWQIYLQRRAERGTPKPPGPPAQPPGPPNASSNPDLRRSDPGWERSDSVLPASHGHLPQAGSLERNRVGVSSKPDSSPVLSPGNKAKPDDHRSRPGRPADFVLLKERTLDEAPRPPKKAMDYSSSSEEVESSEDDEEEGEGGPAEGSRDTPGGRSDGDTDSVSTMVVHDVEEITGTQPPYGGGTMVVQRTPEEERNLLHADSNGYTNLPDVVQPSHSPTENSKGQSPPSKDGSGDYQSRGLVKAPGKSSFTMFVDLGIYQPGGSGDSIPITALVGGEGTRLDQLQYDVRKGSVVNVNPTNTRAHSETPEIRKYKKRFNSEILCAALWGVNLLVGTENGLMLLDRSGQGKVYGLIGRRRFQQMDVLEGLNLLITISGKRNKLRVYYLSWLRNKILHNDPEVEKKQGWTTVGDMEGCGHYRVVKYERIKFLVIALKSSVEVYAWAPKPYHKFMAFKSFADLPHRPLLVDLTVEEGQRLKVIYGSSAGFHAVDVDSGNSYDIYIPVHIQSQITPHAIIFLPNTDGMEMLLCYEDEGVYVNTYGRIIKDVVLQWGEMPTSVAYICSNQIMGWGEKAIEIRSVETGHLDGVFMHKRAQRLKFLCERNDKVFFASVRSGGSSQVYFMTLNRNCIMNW
Chain of Serine/threonine-protein kinase 38 (Q15208 whole entry): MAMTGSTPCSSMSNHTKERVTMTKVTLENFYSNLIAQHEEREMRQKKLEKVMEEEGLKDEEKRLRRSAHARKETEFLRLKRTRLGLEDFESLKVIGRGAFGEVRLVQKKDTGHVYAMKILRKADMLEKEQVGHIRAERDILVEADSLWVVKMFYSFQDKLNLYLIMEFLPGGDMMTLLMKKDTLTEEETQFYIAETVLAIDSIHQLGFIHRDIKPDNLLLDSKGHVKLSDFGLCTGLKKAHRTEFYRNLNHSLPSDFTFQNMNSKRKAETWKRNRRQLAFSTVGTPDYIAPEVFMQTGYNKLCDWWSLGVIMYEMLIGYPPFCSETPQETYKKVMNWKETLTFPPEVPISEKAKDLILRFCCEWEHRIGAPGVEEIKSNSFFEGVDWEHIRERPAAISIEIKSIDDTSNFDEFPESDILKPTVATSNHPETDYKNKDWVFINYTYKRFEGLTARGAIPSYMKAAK
Chain of Cyclin-dependent kinase 10 (Q15131 whole entry): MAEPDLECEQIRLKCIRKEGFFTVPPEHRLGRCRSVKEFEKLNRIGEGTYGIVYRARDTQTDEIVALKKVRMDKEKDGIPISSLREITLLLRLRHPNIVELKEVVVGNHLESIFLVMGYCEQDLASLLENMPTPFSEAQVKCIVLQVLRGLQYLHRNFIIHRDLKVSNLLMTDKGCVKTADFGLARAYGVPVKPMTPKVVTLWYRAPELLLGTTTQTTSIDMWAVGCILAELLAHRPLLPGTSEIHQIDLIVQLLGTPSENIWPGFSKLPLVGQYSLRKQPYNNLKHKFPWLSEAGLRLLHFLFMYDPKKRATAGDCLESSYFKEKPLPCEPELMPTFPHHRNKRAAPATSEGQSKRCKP
Chain of Eukaryotic peptide chain release factor GTP-binding subunit ERF3B (Q8IYD1 whole entry): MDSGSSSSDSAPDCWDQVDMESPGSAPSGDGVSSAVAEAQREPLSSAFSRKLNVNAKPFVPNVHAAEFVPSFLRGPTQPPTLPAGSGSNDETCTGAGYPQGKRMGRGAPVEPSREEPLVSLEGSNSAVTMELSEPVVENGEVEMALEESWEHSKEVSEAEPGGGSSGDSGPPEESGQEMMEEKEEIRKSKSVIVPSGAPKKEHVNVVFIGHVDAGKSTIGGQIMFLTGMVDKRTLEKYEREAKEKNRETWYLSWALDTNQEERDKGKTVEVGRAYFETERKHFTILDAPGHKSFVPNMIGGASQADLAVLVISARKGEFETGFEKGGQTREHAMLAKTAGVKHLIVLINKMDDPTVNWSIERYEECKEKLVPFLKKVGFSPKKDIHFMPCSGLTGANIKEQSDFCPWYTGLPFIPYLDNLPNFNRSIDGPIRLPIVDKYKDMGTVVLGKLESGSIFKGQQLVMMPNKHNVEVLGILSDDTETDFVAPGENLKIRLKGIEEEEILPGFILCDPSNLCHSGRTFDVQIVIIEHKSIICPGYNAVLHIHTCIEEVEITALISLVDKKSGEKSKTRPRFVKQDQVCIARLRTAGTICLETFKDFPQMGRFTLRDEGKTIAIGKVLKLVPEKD
Chain of Serine/threonine-protein kinase 38-like (Q9Y2H1 whole entry): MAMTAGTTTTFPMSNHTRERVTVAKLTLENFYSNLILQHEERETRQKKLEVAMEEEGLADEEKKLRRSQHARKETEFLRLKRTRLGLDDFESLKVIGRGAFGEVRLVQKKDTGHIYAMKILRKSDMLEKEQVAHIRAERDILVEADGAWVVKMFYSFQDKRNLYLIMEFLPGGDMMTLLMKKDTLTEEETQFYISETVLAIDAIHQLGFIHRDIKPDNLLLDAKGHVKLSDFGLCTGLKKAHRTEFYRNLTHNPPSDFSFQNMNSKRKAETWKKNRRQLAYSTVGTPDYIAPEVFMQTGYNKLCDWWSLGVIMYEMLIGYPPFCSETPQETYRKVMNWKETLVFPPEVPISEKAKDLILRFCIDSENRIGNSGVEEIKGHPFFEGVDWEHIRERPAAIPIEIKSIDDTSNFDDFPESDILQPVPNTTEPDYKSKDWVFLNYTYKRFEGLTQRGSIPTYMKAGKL

| Kd [1] | Kd [2] | Kd [3] | Kd [4] | Kd [5] | Kd [6] | Kd [7] | Kd [8] | Kd [11] | Compound | Kd [9] | Kd [10] |
| --- | --- | --- | --- | --- | --- | --- | --- | --- | --- | --- | --- |
| > 30 µM (inactive) | > 30 µM (inactive) | > 30 µM (inactive) | > 30 µM (inactive) | > 30 µM (inactive) | > 30 µM (inactive) | > 30 µM (inactive) | – | – | O=C(Nc1ccc(OC(F)(F)F)cc1)c1sccc1NCc1ccnc2ccccc12 [OSI-930] | – | – |
| > 30 µM (inactive) | > 30 µM (inactive) | > 30 µM (inactive) | > 30 µM (inactive) | > 30 µM (inactive) | 0.193 µM (active) | > 30 µM (inactive) | > 30 µM (inactive) | – | CCc1cc2c(cc1N1CCC(N3CCOCC3)CC1)C(C)(C)c1[nH]c3cc(C#N)ccc3c1C2=O [ALECTINIB] | – | – |
| > 30 µM (inactive) | > 30 µM (inactive) | > 30 µM (inactive) | > 30 µM (inactive) | – | > 30 µM (inactive) | > 30 µM (inactive) | – | > 30 µM (inactive) | C#Cc1cccc(Nc2ncnc3cc4c(cc23)OCCOCCOCCO4)c1 [ICOTINIB] | > 30 µM (inactive) | – |

| Compound | Kd [1] | Kd [2] | Kd [3] | Kd [4] | Kd [5] | Kd [6] | Kd [7] | Kd [8] | Kd [11] | Kd [9] | Kd [10] |
| --- | --- | --- | --- | --- | --- | --- | --- | --- | --- | --- | --- |
| C=CCn1c(=O)c2cnc(Nc3ccc(N4CCN(C)CC4)cc3)nc2n1-c1cccc(C(C)(C)O)n1 [ADAVOSERTIB] | > 30 µM (inactive) | – | > 30 µM (inactive) | – | – | > 30 µM (inactive) | > 30 µM (inactive) | – | – | > 30 µM (inactive) | > 30 µM (inactive) |
